Values of other authors as cited in patent publication US20090318526A1, “Use of cannabinoid receptor agonists as hypothermia inducing drugs for the treatment of ischemia” (priority 2006, published 2009).

Test system: Sprague-Dawley rats
Details: Leker et al. [37]

Structure (SMILES): CCCCCCC(C)(C)c1cc(O)c2c(c1)OC(C)(C)[C@@H]1CC=C(CO)C[C@@H]21 [HU-210, (−)-11-OH-delta-8-tetrahydrocannabinoldimethylheptyl]
- induction of hypothermia (Sprague-Dawley rats): did provide hypothermia
- protection against ischemic damages (Sprague-Dawley rats): protection against ischemic damages
- side effects due to the treatment (rats): hemodynamic and behavioural side effects
